# Test system: K562
# Assay: Cytotoxicity against human K562 cells
# Assay type: functional
# Details: read-out: LC50 (the source's name)
row,SMILES,CC50 [µg/mL]
1,C=C(CC[C@@H](C)[C@H]1CC[C@@]2(C(=O)O)C3=C(CC[C@]12C)[C@@]1(C)CCC(O[C@@H]2O[C@H](CO)[C@H](O)[C@H](O[C@@H]4OC[C@H](O)[C@H](O)[C@H]4O)[C@H]2O[C@@H]2O[C@H](CO)[C@@H](O)[C@H](O)[C@H]2NC(C)=O)C(C)(C)[C@@H]1CC3)C(C)C (some centres undefined) [ERYLOSIDE G],22.1
2,C=C(CC[C@@H](C)[C@H]1CC[C@@]2(C(=O)O)C3=C(CC[C@]12C)[C@@]1(C)CCC(O[C@@H]2OC[C@H](O)[C@H](O[C@@H]4OC[C@H](O)[C@H](O)[C@H]4O)[C@H]2O[C@@H]2O[C@H](CO)[C@@H](O)[C@H](O)[C@H]2NC(C)=O)C(C)(C)[C@@H]1CC3)C(C)C (some centres undefined) [ERYLOSIDE H],24.8
3,C=C(CC[C@@H](C)[C@H]1CC[C@@]2(C(=O)O)C3=C(CC[C@]12C)[C@@]1(C)CCC(O[C@@H]2O[C@H](CO)[C@H](O)[C@H](O[C@@H]4OC[C@H](O)[C@H](O)[C@H]4O)[C@H]2O[C@@H]2O[C@H](CO)[C@@H](O)[C@H](O)[C@H]2NC(C)=O)C(C)(C)[C@@H]1CC3)C(C)(C)C (some centres undefined) [ERYLOSIDE I],17.9
4,C=C(CC[C@@H](C)[C@H]1CC[C@@]2(C(=O)O)C3=C(CC[C@]12C)[C@@]1(C)CCC(O[C@@H]2OC[C@H](O)[C@H](O[C@@H]4OC[C@H](O)[C@H](O)[C@H]4O)[C@H]2O[C@@H]2O[C@H](CO)[C@@H](O)[C@H](O)[C@H]2NC(C)=O)C(C)(C)[C@@H]1CC3)C(C)(C)C (some centres undefined) [ERYLOSIDE J],21.8

# — ChEMBL document CHEMBL1150863, “New triterpenoid saponins from the sponge Erylus nobilis” (2001)
